Molecular target: T1, human GLP-1 receptor (Homo sapiens, UniProt P43220)
T1 construct: expressed in transfected cells; host or cells: BHK cells, clone FCW467-12A/KZ10-1 (parent line BHKTS13), further transfected with CRE luciferase
Test: In vitro potency (AlphaScreen cAMP, membranes)
Assay type: biochemical
Settings: cAMP formation in membranes from BHK467-12A cells expressing human GLP-1 receptor; read-out: In vitro potency (AlphaScreen) EC50
Experimental: The purpose of this example is to test the activity, or potency, of the GLP-1 derivatives in vitro.
Purified plasma membranes from a stable transfected cell line, BHK467-12A (tk-ts13), expressing the human GLP-1 receptor were stimulated with the GLP-1 analogue or derivative in question, and the potency of cAMP production was measured using the AlphaScreen™ cAMP Assay Kit from Perkin Elmer Life Sciences. The basic principle of the AlphaScreen Assay is a competition between endogenous cAMP and exogenously added biotin-cAMP. The capture of cAMP is achieved by using a specific antibody conjugated to acceptor beads.
A stable transfected cell line and a high expressing clone were selected for screening. The cells were grown at 5% CO2 in DMEM, 5% FCS, 1% Pen/Strep (Penicillin/Streptomycin) and 0.5 mg/ml of the selection marker G418.
Cells at approximately 80% confluence were washed 2× with PBS and harvested with Versene (aqueous solution of the tetrasodium salt of ethylenediaminetetraacetic acid), centrifuged 5 min at 1000 rpm and the supernatant removed. The additional steps were all performed on ice. The cell pellet was homogenised by the Ultrathurax for 20-30 s in 10 ml of Buffer 1 (20 mM Na-HEPES, 10 mM EDTA, pH=7.4), centrifuged 15 min at 20,000 rpm and the pellet resuspended in 10 ml of Buffer 2 (20 mM Na-HEPES, 0.1 mM EDTA, pH=7.4). The suspension was homogenised for 20-30 s and centrifuged 15 min at 20,000 rpm. Suspension in Buffer 2, homogenisation and centrifugation was repeated once and the membranes were resuspended in Buffer 2. The protein concentration was determined and the membranes stored at −80° C. until use.
The assay was performed in flat-bottom 96-well plates (Costar cat. no:3693). The final volume per well was 50 μl.
AlphaScreen cAMP Assay Kit from Perkin Elmer Life Sciences (cat. No: 6760625M); containing Anti-cAMP Acceptor beads (10 U/μl), Streptavidin Donor beads (10 U/μl) and Biotinylated-cAMP (133 U/μl).
AlphaScreen Buffer, pH=7.4: 50 mM TRIS-HCl (Sigma, cat.no: T3253); 5 mM HEPES (Sigma, cat.no: H3375); 10 mM MgCl2, 6H2O (Merck, cat.no: 5833); 150 mM NaCl (Sigma, cat.no: S9625); 0.01% Tween (Merck, cat.no: 822184). The following was added to the AlphaScreen Buffer prior to use (final concentrations indicated): BSA (Sigma, cat. no. A7906): 0.1%; IBMX (Sigma, cat. no. 15879): 0.5 mM; ATP (Sigma, cat. no. A7699): 1 mM; GTP (Sigma, cat. no. G8877): 1 uM.
cAMP standard (dilution factor in assay=5): cAMP Solution: 5 μL of a 5 mM cAMP-stock+495 μL AlphaScreen Buffer.
Membranes were prepared from hGLP-1/BHK 467-12A cells with a concentration of 6 μg/well corresponding to 0.6 mg/ml (the amount of membranes used pr. well may vary)
“No membranes”: Acceptor Beads (15 μg/ml final) in AlphaScreen buffer
“6 μg/well membranes”: membranes+Acceptor Beads (15 μg/ml final) in AlphaScreen buffer
An aliquot (10 μl) of “No membranes” was added to the cAMP standard (per well in duplicate wells) and the positive and negative controls
An aliquot (10 μl) of “6 μg/well membranes” was added to GLP-1 and analogues (per well in duplicate or triplicate wells)
Pos. Control: 10 μl “no membranes”+10 μl AlphaScreen Buffer
Neg. Control: 10 μl “no membranes”+10 μl cAMP Stock Solution (50 μM)
As the beads are sensitive to direct light, any handling was in the dark (as dark as possible), or in green light. All dilutions were made on ice.
1. Make the AlphaScreen Buffer.
2. Dissolve and dilute the GLP-1/Analogues/cAMP standard in AlphaScreen Buffer.
3. Make the Donor Beads Solution by mixing streptavidin donor beads (2 units/well) and biotinylated cAMP (1.2 units/well) and incubate 20-30 min in the dark at room temperature
4. Add the cAMP/GLP-1/Analogues to the plate: 10 μl per well.
5. Prepare membrane/Acceptor Beads solution and add this to the plates: 10 μl per well.
6. Add the Donor Beads: 30 μl per well.
7. Wrap the plate in aluminum foil and incubate on the shaker for 3 hours (very slowly) at RT.

T1 sequence (P43220 24-463): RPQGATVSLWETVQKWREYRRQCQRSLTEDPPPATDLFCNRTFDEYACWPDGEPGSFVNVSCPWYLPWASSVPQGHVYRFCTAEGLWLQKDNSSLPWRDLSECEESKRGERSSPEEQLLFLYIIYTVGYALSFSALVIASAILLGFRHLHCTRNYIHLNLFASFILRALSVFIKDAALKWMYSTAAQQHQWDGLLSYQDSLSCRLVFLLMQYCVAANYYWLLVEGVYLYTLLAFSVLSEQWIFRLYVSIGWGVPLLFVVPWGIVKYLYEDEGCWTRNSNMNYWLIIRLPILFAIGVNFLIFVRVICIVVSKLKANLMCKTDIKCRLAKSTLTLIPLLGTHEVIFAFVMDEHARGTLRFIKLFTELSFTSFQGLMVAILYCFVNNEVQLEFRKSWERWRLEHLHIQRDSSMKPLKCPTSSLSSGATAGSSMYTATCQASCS

| SMILES | EC50 |
| --- | --- |
| CC[C@H](C)[C@H](NC(=O)[C@H](Cc1ccccc1)NC(=O)[C@H](CCC(=O)O)NC(=O)[C@H](CCCCNC(=O)[C@@H](N)CCCCNC(=O)COCCOCCNC(=O)COCCOCCNC(=O)CC[C@H](NC(=O)CCCCCCCCCCCCCCC(=O)O)C(=O)O)NC(=O)[C@H](C)NC(=O)[C@H](C)NC(=O)[C@H](CCC(N)=O)NC(=O)CNC(=O)[C@H](CCC(=O)O)NC(=O)[C@H](CC(C)C)NC(=O)[C@H](Cc1ccc(O)cc1)NC(=O)[C@H](CO)NC(=O)[C@H](CO)NC(=O)[C@@H](NC(=O)[C@H](CC(=O)O)NC(=O)[C@H](CO)NC(=O)[C@@H](NC(=O)[C@H](Cc1ccccc1)NC(=O)[C@@H](NC(=O)CNC(=O)[C@H](CCC(=O)O)NC(=O)C(C)(C)NC(=O)[C@@H](N)Cc1c[nH]cn1)[C@@H](C)O)[C@@H](C)O)C(C)C)C(=O)N[C@@H](C)C(=O)N[C@@H](Cc1c[nH]c2ccccc12)C(=O)N[C@@H](CC(C)C)C(=O)N[C@H](C(=O)N[C@@H](CCCNC(=N)N)C(=O)NCC(=O)N[C@@H](CCCNC(=N)N)C(=O)N[C@@H](CCCCNC(=O)[C@@H](N)CCCCNC(=O)COCCOCCNC(=O)COCCOCCNC(=O)CC[C@H](NC(=O)CCCCCCCCCCCCCCC(=O)O)C(=O)O)C(=O)O)C(C)C [Example 10, N^ε26-[(2S)-2-amino-6-[[2-[2-[2-[[2-[2-[2-[[(4S)-4-carboxy-4-(15-carboxypentadecanoylamino)butanoyl]amino]ethoxy]ethoxy]acetyl]amino]ethoxy]ethoxy]acetyl]amino]hexanoyl], N^ε37-[(2S)-2-amino-6-[[2-[2-[2-[[2-[2-[2-[[(4S)-4-carboxy-4-(15-carboxypentadecanoylamino)butanoyl]amino]ethoxy]ethoxy]acetyl]amino]ethoxy]ethoxy]acetyl]amino]hexanoyl]-[Aib^8,Arg^34,Lys^37]-GLP-1-(7-37)-peptide] | 0.492 nM |
| CC[C@H](C)[C@H](NC(=O)[C@H](Cc1ccccc1)NC(=O)[C@H](CCC(=O)O)NC(=O)[C@H](CCCCNC(=O)[C@@H](N)CCCCNC(=O)[C@@H](N)CCCCNC(=O)CC[C@H](NC(=O)CC[C@H](NC(=O)CCCCCCCCCCCCCCC(=O)O)C(=O)O)C(=O)O)NC(=O)[C@H](C)NC(=O)[C@H](C)NC(=O)[C@H](CCC(N)=O)NC(=O)CNC(=O)[C@H](CCC(=O)O)NC(=O)[C@H](CC(C)C)NC(=O)[C@H](Cc1ccc(O)cc1)NC(=O)[C@H](CO)NC(=O)[C@H](CO)NC(=O)[C@@H](NC(=O)[C@H](CC(=O)O)NC(=O)[C@H](CO)NC(=O)[C@@H](NC(=O)[C@H](Cc1ccccc1)NC(=O)[C@@H](NC(=O)CNC(=O)[C@H](CCC(=O)O)NC(=O)C(C)(C)NC(=O)[C@@H](N)Cc1c[nH]cn1)[C@@H](C)O)[C@@H](C)O)C(C)C)C(=O)N[C@@H](C)C(=O)N[C@@H](Cc1c[nH]c2ccccc12)C(=O)N[C@@H](CC(C)C)C(=O)N[C@H](C(=O)N[C@@H](CCCNC(=N)N)C(=O)NCC(=O)N[C@@H](CCCNC(=N)N)C(=O)N[C@@H](CCCCNC(=O)[C@@H](N)CCCCNC(=O)[C@@H](N)CCCCNC(=O)CC[C@H](NC(=O)CC[C@H](NC(=O)CCCCCCCCCCCCCCC(=O)O)C(=O)O)C(=O)O)C(=O)O)C(C)C [Example 12, N^ε26-[(2S)-2-amino-6-[[(2S)-2-amino-6-[[(4S)-4-carboxy-4-[[(4S)-4-carboxy-4-(15-carboxypentadecanoylamino)butanoyl]amino]butanoyl]amino]hexanoyl]amino]hexanoyl], N^ε37-[(2S)-2-amino-6-[[(2S)-2-amino-6-[[(4S)-4-carboxy-4-[[(4S)-4-carboxy-4-(15-carboxypentadecanoylamino)butanoyl]amino]butanoyl]amino]hexanoyl]amino]hexanoyl]-[Aib^8,Arg^34, Lys^37]-GLP-1-(7-37)-peptide] | 0.227 nM |
| CC[C@H](C)[C@H](NC(=O)[C@H](Cc1ccccc1)NC(=O)[C@H](CCC(=O)O)NC(=O)[C@H](CCCCNC(=O)[C@@H](N)CCCCNC(=O)CC[C@H](NC(=O)CC[C@H](NC(=O)CC[C@H](NC(=O)CCCCCCCCCCCCCCC(=O)O)C(=O)O)C(=O)O)C(=O)O)NC(=O)[C@H](C)NC(=O)[C@H](C)NC(=O)[C@H](CCC(N)=O)NC(=O)CNC(=O)[C@H](CCC(=O)O)NC(=O)[C@H](CC(C)C)NC(=O)[C@H](Cc1ccc(O)cc1)NC(=O)[C@H](CO)NC(=O)[C@H](CO)NC(=O)[C@@H](NC(=O)[C@H](CC(=O)O)NC(=O)[C@H](CO)NC(=O)[C@@H](NC(=O)[C@H](Cc1ccccc1)NC(=O)[C@@H](NC(=O)CNC(=O)[C@H](CCC(=O)O)NC(=O)C(C)(C)NC(=O)[C@@H](N)Cc1c[nH]cn1)[C@@H](C)O)[C@@H](C)O)C(C)C)C(=O)N[C@@H](C)C(=O)N[C@@H](Cc1c[nH]c2ccccc12)C(=O)N[C@@H](CC(C)C)C(=O)N[C@H](C(=O)N[C@@H](CCCNC(=N)N)C(=O)NCC(=O)N[C@@H](CCCNC(=N)N)C(=O)N[C@@H](CCCCNC(=O)[C@@H](N)CCCCNC(=O)CC[C@H](NC(=O)CC[C@H](NC(=O)CC[C@H](NC(=O)CCCCCCCCCCCCCCC(=O)O)C(=O)O)C(=O)O)C(=O)O)C(=O)O)C(C)C [Example 13, N^ε26-[(2S)-2-amino-6-[[(4S)-4-carboxy-4-[[(4S)-4-carboxy-4-[[(4S)-4-carboxy-4-(15-carboxypentadecanoylamino)butanoyl]amino]butanoyl]amino]butanoyl]amino]hexanoyl], N^ε37-[(2S)-2-amino-6-[[(4S)-4-carboxy-4-[[(4S)-4-carboxy-4-[[(4S)-4-carboxy-4-(15-carboxypentadecanoylamino)butanoyl]amino]butanoyl]amino]butanoyl]amino]hexanoyl]-[Aib^8,Arg^34,Lys^37]-GLP-1-(7-37)-peptide] | 0.385 nM |
